In US7713994B2 (Wyeth LLC, priority 2005, dated 2010):
Read-outs that look alike come from different tables or passages of the source.

How the values were obtained:
HCT-116 = experiment: Cytotoxicity assay (SRB), HCT-116; format: cell-based; details: HCT116 cells, SRB, read-out: In Vitro Cellular Activity IC50 HCT116
Outline: (§1)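 Protein staining with sulforhodamine B after cold TCA fixation served as the survival endpoint (A540, relative to untreated cells). Before staining, cells were incubated with compound at 37 °C, 7% CO2 for 3 days, or 6 days for BT474.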

cyclin D1/cdk 4 enzyme = biological target: T1, cyclin D1/cdk 4 enzyme (Homo sapiens, UniProt P11802); experiment: CDK4 ELISA kinase assay (phospho-Rb ser 795 detection); format: biochemical
T1 construct: made in house; host or cells: Sf9 insect cells, recombinant baculovirus
Outline: (§2)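 ELISA format: plate-bound GST-Rb, 200 μM ATP, Sf9 cyclin/CDK enzyme, 1 h at 30° C; then anti-pRb Ser795 primary overnight at 4° C, HRP secondary, TMB. IC50 after no-substrate background subtraction.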

cyclin B/CDK1 enzyme = biological target: T2, cyclin B/CDK1 enzyme (Homo sapiens, UniProt P06493); experiment: CDK1 ELISA kinase assay (phospho-Rb ser 795 detection); format: biochemical
T2 construct: purchased New England BioLabs; host or cells: Sf9 insect cells, recombinant baculovirus
Outline: as §2

cyclin E/CDK2 enzyme = biological target: T3, cyclin E/CDK2 enzyme (Homo sapiens, UniProt P24941); experiment: CDK2 ELISA kinase assay (phospho-Rb ser 795 detection); format: biochemical
T3 construct: made in house; host or cells: Sf9 insect cells, recombinant baculovirus
Outline: as §2

BT474 = experiment: Cytotoxicity assay (SRB), BT474; format: cell-based
Outline: as §1

LoVo = experiment: Cytotoxicity assay (SRB), LoVo; format: cell-based; details: LoVo cells, SRB, read-out: In Vitro Cellular Activity IC50 LOVO
Outline: as §1

MCF-7 = experiment: Cytotoxicity assay (SRB), MCF-7; format: cell-based; details: MCF-7 cells, SRB, read-out: In Vitro Cellular Activity IC50 MCF-7
Outline: as §1

[1] = In Vitro Enzyme Assay, cyclin D1/cdk 4, read-out: CDK4 IC50
[2] = In Vitro Enzyme Assay, cyclin B/CDK1, read-out: CDK1 IC50
[3] = In Vitro Enzyme Assay, cyclin E/CDK2, read-out: CDK2 IC50
[4] = Homo sapiens, HCT-116, 72 h, 3 days
[5] = Homo sapiens, BT-474, 144 h, BT474 cells, 6 days, SRB; read-out: In Vitro Cellular Activity IC50 BT474
[6] = Homo sapiens, LoVo, 72 h, 3 days
[7] = Homo sapiens, MCF7, 72 h, 3 days
[8] = Homo sapiens, HCT-116, 72 h, three days
[9] = In Vitro Enzyme Assays, 200 μM ATP, read-out: CDK4 IC50
[10] = In Vitro Enzyme Assays, read-out: CDK1 IC50
[11] = In Vitro Enzyme Assays, read-out: CDK2 IC50
[12] = Homo sapiens, BT-474, 144 h, BT474 cells, SRB, 6 days; read-out: In Vitro Cellular Activity IC50 BT474
[13] = Homo sapiens, LoVo, 72 h, three days
[14] = Homo sapiens, MCF7, 72 h, three days

T1 sequence (P11802 whole entry, species assumed): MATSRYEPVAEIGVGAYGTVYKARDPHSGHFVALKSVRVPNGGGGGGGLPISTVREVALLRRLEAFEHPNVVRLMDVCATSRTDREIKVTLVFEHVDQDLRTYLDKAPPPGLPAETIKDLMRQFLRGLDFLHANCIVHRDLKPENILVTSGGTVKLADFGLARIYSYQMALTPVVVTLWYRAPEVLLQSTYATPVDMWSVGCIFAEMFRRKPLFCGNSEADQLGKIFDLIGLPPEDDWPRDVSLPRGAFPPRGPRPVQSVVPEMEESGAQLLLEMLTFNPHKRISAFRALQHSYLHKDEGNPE
T1 sequence (P24385 whole entry partner, species assumed): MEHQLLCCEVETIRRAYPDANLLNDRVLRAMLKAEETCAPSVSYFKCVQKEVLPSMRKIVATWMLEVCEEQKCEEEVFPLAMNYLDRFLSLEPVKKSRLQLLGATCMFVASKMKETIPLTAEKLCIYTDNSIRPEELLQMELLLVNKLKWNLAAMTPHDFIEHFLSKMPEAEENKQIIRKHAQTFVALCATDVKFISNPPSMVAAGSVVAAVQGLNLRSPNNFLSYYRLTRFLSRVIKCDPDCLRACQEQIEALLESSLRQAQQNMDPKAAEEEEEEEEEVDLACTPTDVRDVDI
T2 sequence (P06493 whole entry): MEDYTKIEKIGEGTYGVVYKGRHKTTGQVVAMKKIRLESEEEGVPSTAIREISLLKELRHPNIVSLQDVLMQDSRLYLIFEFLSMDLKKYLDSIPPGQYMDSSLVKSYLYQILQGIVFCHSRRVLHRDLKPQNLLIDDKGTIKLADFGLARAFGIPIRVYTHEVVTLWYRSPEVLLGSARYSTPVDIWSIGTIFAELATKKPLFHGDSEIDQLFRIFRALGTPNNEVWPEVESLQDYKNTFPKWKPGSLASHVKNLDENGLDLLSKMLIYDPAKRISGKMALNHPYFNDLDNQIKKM
T2 sequence (P14635 whole entry partner): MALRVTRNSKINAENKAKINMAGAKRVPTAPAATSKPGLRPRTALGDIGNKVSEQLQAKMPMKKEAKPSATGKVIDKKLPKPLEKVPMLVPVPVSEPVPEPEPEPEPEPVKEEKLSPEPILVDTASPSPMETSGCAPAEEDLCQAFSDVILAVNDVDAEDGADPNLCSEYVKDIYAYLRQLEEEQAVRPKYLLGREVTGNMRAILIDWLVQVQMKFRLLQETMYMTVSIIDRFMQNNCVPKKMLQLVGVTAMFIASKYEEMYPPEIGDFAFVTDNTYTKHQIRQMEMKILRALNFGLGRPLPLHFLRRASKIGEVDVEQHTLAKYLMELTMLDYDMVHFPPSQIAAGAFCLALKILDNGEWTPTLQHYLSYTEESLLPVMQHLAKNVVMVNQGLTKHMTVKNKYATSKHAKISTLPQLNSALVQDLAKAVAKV

IC50 (cyclin D1/cdk 4 enzyme; [1]) [µM]	IC50 (cyclin B/CDK1 enzyme; [2]) [µM]	IC50 (cyclin E/CDK2 enzyme; [3]) [µM]	IC50 (cyclin D1/cdk 4 enzyme; [9]) [µM]	IC50 (cyclin B/CDK1 enzyme; [10]) [µM]	IC50 (cyclin E/CDK2 enzyme; [11]) [µM]	Compound	IC50 (HCT-116; [4]) [µM]	IC50 (BT474; [5]) [µM]	IC50 (LoVo; [6]) [µM]	IC50 (MCF-7; [7]) [µM]	IC50 (HCT-116; [8]) [µM]	IC50 (BT474; [12]) [µM]	IC50 (LoVo; [13]) [µM]	IC50 (MCF-7; [14]) [µM]	further results
34.7	> 50	> 50	–	–	–	6-Bromo-4-[(4-methoxy-phenylamino)-methylene]-1,4-dihydro-2H-isoquinolin-3-one & 8-Bromo-4-[(4-methoxy-phenylamino)-methylene]-1,4-dihydro-2H-isoquinolin-3-one [Example 844]	–	–	–	–	–	–	–	–	IC50 (HCT-116; 3 days): 28 µM; IC50 (BT474; BT474 cells, 6 days, SRB; read-out: In Vitro Cellular Activity IC50 BT474): 27.1 µM; IC50 (LoVo; 3 days): 26.7 µM; IC50 (MCF-7; 3 days): 26.1 µM
0.74	> 50	27.7	–	–	–	Cc1ccc(-c2ccc3c(c2)C(=CNCc2ccc(O)c(O)c2)C(=O)NC3=O)cc1 [Example 781, 4-[(3,4-Dihydroxy-benzylamino)-methylene]-6-p-tolyl-4H-isoquinoline-1,3-dione]	14.4	23.3	14	12.7	–	–	–	–	–
–	–	–	0.07	6.1	1.6	C#CC(=O)Nc1ccc(CN/C=C2\C(=O)NC(=O)c3ccc(I)cc32)cc1O [Example 340, N-[2-Hydroxy-4-({[(Z)-(6-iodo-1,3-dioxo-2,3-dihydroisoquinolin-4(1H)-ylidene)methyl]amino}methyl)phenyl]prop-2-ynamide]	–	–	–	–	1.2	1.4	1.4	1.4	–
–	–	–	0.43	> 50	> 50	O=C1NC(=O)c2ccc(I)cc2/C1=C/Nc1ccc(CN2CCC[C@H]2CO)cc1 [Example 376, L-4-{[4-(2-Hydroxymethyl-pyrrolidin-1-ylmethyl)-phenylamino]-methylene}-6-iodo-4H-isoquinoline-1,3-dione]	–	–	–	–	3.6	0.37	2.6	0.55	–
0.18	> 50	22	–	–	–	CCN1CCCC1c1ccc(N/C=C2\C(=O)NC(=O)c3ccc(I)cc32)cc1 (stereo not shown) [Example 465, 4-{[4-(1-Ethyl-pyrrolidin-2-yl)-phenylamino]-methylene}-6-iodo-4H-isoquinoline-1,3-dione]	2.9	3.8	5	1.3	–	–	–	–	–
0.06	27.7	7.3	–	–	–	N#Cc1ccc(-c2ccc3c(c2)C(=CNCc2ccc(O)c(O)c2)C(=O)NC3=O)cc1 [Example 784, 4-{4-[(3,4-Dihydroxy-benzylamino)-methylene]-1,3-dioxo-1,2,3,4-tetrahydro-isoquinolin-6-yl}-benzonitrile]	8.7	> 50	35.1	13.8	–	–	–	–	–
1.29	43.4	14.4	–	–	–	COc1ccccc1-c1ccc2c(c1)C(=CNCc1ccc(O)c(O)c1)C(=O)NC2=O [Example 766, 4-[(3,4-Dihydroxy-benzylamino)-methylene]-6-(2-methoxy-phenyl)-4H-isoquinoline-1,3-dione]	21.6	33.9	32.3	22.1	–	–	–	–	–
–	–	–	33.2	> 50	> 50	COc1ccc(C(=O)NN/C=C2\C(=O)NC(=O)c3ccc(Br)cc32)cc1O [Example 202, N′-[(Z)-(6-Bromo-1,3-dioxo-2,3-dihydroisoquinolin-4(1H)-ylidene)methyl]-3-hydroxy-4-methoxybenzohydrazide]	–	–	–	–	> 50	18	> 50	> 50	–
–	–	–	0.11	> 50	4.7	O=C1NC(=O)c2ccc(Br)cc2/C1=C/NCc1cc(O)ccc1O [Example 173, (4Z)-6-Bromo-4-{[(2,5-dihydroxybenzyl)amino]methylene}isoquinoline-1,3(2H,4H)-dione]	–	–	–	–	11	8.3	17	12	–
3.3	> 50	38.8	–	–	–	N#Cc1ccc(-c2ccc3c(c2)C(=CNc2ccc(CN4CCCC4)cc2)C(=O)NC3=O)cc1 [Example 839, 4-{1,3-Dioxo-4-[(4-pyrrolidin-1-ylmethyl-phenylamino)-methylene]-1,2,3,4-tetrahydro-isoquinolin-6-yl}-benzonitrile]	14.1	27.2	> 50	21.6	–	–	–	–	–
–	–	–	0.02	> 50	> 50	O=C1NC(=O)c2ccc(-c3ccsc3)cc2/C1=C/Nc1ccc(N2CCN(CC3CC3)CC2)nc1 [Example 418, (4Z)-4-[({6-[4-(Cyclopropylmethyl)piperazin-1-yl]pyridin-3-yl}amino)methylene]-6-(3-thienyl)isoquinoline-1,3(2H,4H)-dione]	1.4	2.7	2.4	3.2	–	–	–	–	–
0.03	> 50	29.3	–	–	–	O=C1NC(=O)c2ccc(-c3ccco3)cc2/C1=C/NCc1ccc(-c2ccc(F)cc2)c(O)c1 [Example 501, 4-{[(4′-Fluoro-2-hydroxy-biphenyl-4-ylmethyl)-amino]-methylene}-6-furan-2-yl-4H-isoquinoline-1,3-dione]	2.6	3.5	2.9	1.4	–	–	–	–	–
–	–	–	0.56	> 50	2.7	O=C1NC(=O)c2ccc(Br)cc2/C1=C/NCc1cc[nH]c(=O)c1 [Example 225, (4Z)-6-Bromo-4-({[(2-oxo-1,2-dihydropyridin-4-yl)methyl]amino}methylene)isoquinoline-1,3(2H,4H)-dione]	–	–	–	–	> 50	19.5	> 50	> 50	–
–	–	–	~1.5	~19.7	~33.9	PEG5000thio-acetic acid 5-{[(6-iodo-1,3-dioxo-2,3-dihydro-1H-isoquinolin-4-ylidenemethyl)-amino]-methyl}-2-propoxy-phenyl ester [Example 292]	–	–	–	–	–	–	–	–	IC50 (HCT-116; three days): ~1.2 µM; IC50 (BT474; BT474 cells, SRB, 6 days; read-out: In Vitro Cellular Activity IC50 BT474): ~0.9 µM; IC50 (LoVo; three days): ~1.2 µM; IC50 (MCF-7; three days): ~6.5 µM
0.17	> 50	> 50	–	–	–	O=C1NC(=O)c2ccc(C=Cc3ccccn3)cc2C1=CNCc1ccc(O)c(O)c1 [Example 662, 4-[(3,4-Dihydroxy-benzylamino)-methylene]-6-(2-pyridin-2-yl-vinyl)-4H-isoquinoline-1,3-dione]	> 50	35.8	> 50	30.6	–	–	–	–	–
–	–	–	1.66	> 50	> 50	O=C1NC(=O)c2ccc(I)cc2/C1=C/Nc1ccc(N2CCN(Cc3ccco3)CC2)cc1 [Example 389, (4Z)-4-[({4-[4-(2-Furylmethyl)piperazin-1-yl]phenyl}amino)methylene]-6-iodoisoquinoline-1,3(2H,4H)-dione]	–	–	–	–	23	> 50	> 50	29	–
–	–	–	–	> 50	39.7	O=C1NC(=O)c2ccc(I)cc2/C1=C/Nc1ccc2ncccc2c1 [Example 272, (4Z)-6-Iodo-4-[(quinolin-6-ylamino)methylene]isoquinoline-1,3(2H,4H)-dione]	–	–	–	–	4.2	7.2	8.9	3.1	–
